Source: article PMC9343080, “Distribution- and Metabolism-Based Drug Discovery: A Potassium-Competitive Acid Blocker as a Proof of Concept” (Research, 2022)
Read-outs that look alike come from different tables or passages of the source.

Key:
Na+, K+-ATPase = test: In vitro Na+, K+-ATPase activity; format: biochemical
[1] = Metabolite identification and profiling in rat hepatocytes; format: in vitro ADME; conditions: SH-337, rat hepatocytes, 60 min incubation
Experimental: SH-337 was incubated with rat or human hepatocytes at a concentration of 1.0 × 10^6 cells/mL for 60 min or 120 min (rat 60 min, human 120 min) at 37°C in a CO2 incubator. The samples were precipitated with acetonitrile at 1 : 2 and further centrifuged; the supernatants were dried with a stream of N2 gas. The residues were reconstituted with 300 μL of 10% acetonitrile/H2O (0.1% TFA) and analyzed by LC-MS/MS. The assays were pursued under the conditions provided in Supplementary Tables S5–S8.

[2] = test system: histamine-stimulated gastric acid secretion; test: In vivo inhibition of histamine-stimulated acid secretion in anesthetized rats; set-up: species or system rat; conditions: for Total acid output, histamine-stimulated model / Inhibition (%), histamine-stimulated model: rats
Experimental: 60 SPF SD rats weighing 180-220 g were randomly divided into […]: sham, model, SH-337 (2 mg/kg and 4 mg/kg), vonoprazan (2 mg/kg), males and females are equally divided. Fasting for 24 hours, model and sham groups were treated with deionized water. Drugs and vehicle were given through intragastric administration to rats before anesthesia. 1 h after administration, pylorus was ligated. 5 min later, histamine 2HCl (30 mg/10 mL/kg) was injected subcutaneously. At 3 h after histamine administration, the rats were killed by CO2 asphyxiation. The gastric contents were collected in a 10 mL centrifuge tube after removing their stomachs. Centrifuge at 3000 g for 10 min, and then, determine the total acid output during a 3 h period by 0.1 M NaOH [52, 53]. %Inhibition = (average of modelacid–drugacid)/average of modelacid × 100%.

[3] = Human microsomal stability; format: in vitro ADME
Experimental: The in vitro metabolic stabilities of selected compounds were performed using human and rat liver microsomes in triplicate as described previously.

[4] = molecular target: T1, rabbit gastric H+, K+-ATPase (Oryctolagus cuniculus, UniProt P27112); test: In vitro enzymatic activity assay (inorganic phosphate from ATP hydrolysis); format: biochemical
T1 construct: using rabbit gastric H^+, K^+-ATPase; from tissue; host or cells: rabbit stomach (gastric preparation; the method of preparation is not described)
T1 sequence (P27112 whole entry): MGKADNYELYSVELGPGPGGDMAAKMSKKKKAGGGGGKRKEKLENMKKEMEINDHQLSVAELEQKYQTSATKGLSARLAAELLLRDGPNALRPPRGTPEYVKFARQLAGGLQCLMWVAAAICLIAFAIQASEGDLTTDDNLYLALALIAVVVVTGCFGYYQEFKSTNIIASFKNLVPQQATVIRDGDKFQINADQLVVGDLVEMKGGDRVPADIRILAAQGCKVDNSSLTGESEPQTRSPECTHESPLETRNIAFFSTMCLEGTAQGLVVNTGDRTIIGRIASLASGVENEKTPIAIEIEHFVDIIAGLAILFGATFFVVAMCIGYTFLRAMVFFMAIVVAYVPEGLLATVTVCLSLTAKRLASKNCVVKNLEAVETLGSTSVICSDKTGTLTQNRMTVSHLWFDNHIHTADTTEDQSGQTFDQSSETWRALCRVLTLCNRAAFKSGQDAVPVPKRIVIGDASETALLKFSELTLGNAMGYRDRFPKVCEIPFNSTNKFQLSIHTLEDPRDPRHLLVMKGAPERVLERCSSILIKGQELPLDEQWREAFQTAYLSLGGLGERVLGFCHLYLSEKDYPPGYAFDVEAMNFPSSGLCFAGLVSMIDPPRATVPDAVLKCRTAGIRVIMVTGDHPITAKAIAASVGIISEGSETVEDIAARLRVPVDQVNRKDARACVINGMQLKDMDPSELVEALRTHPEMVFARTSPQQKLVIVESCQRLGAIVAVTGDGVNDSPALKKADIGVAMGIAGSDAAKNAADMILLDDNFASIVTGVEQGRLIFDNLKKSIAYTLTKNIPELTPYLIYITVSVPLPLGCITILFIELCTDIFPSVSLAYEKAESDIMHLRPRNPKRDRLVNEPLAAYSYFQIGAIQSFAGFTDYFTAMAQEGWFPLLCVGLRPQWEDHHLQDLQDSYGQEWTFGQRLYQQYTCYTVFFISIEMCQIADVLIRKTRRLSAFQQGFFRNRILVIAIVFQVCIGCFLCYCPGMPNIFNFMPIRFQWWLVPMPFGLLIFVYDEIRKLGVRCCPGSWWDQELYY
T1 sequence (P18597 whole entry partner): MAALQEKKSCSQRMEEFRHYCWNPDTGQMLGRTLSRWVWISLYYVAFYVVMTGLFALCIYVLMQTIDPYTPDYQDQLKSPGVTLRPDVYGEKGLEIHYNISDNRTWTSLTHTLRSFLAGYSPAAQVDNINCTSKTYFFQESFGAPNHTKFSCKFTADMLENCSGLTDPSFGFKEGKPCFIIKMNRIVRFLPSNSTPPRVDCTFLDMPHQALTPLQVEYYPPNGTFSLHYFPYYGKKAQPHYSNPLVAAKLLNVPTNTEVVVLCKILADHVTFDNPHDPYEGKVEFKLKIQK
Experimental: The in vitro enzymatic activity was calculated by measuring the inorganic phosphate produced by the hydrolysis of ATP using rabbit gastric H^+, K^+-ATPase. 0.25 μg enzyme was preincubated at 37°C for 30 min in Tris-HCl buffer (2.0 mL, 50 mM, pH 6.5) containing 5 mM MgCl2, 10 μM valinomycin, 0 or 20 mM KCl, and different concentrations of SH-337 and vonoprazan. The reaction was initiated by adding 5 μL of 5 mM ATP 2Na, and the preparation was incubated for 30 min at 37°C and halted by the addition of 100 μL of malachite green reagent (0.12% malachite green, 7.5% ammonium molybdate, and 11% tween 20 were mixed in a volume ratio of 100 : 25 : 2). H^+, K^+-ATPase activity was calculated after subtracting the enzyme activity in the absence of KCl.

[5] = Tissue distribution of SH-337 in rats (LC-MS/MS); format: in vivo, rat; conditions: for concentration at 15 min / concentration at 1 h / concentration at 2 h / concentration at 4 h / concentration at 24 h: po, 4 mg/kg
Experimental: 15 SPF male SD rats were randomly divided into 5 groups, three per group. Fasting was for 4 hours. Plasma, heart, liver, and stomach were obtained 0.25, 1, 2, 4, and 24 hours after oral administration of SH-337 (0.4 mg/mL in water) at a dose of 4 mg/kg. At designated time points, rats were anesthetized with ether, and the blood samples were collected via the abdominal aorta. The blood was immediately cooled under ice-chilled conditions and centrifuged at approximately 1500 × g at 4°C for 10 minutes to obtain the plasma. For plasma: 20 μL Std samples in duplicate, QC samples in duplicate, and rat plasma samples were mixed with 60 μL ACN containing IS (200 ng/mL of tolbutamide, 50 ng/mL of propranolol, and 500 ng/mL of Dic) in EP tubes. After the mixture was vortexed for 1 min and then centrifuged for 10 min (13000 rpm, 4°C), transfer 50 μL supernatant to a 96-well plate with 150 μL pure water, shake for 10 min, and finally analyze by LC-MS/MS. For heart and liver: tissue samples were added with 3-folds (w/v) saline in terms of the weight of samples and then homogenated. 20 μL Std samples in duplicate, QC samples in duplicate, and rat heart and liver samples were mixed with 60 μL ACN containing IS (200 ng/mL of tolbutamide, 50 ng/mL of propranolol, and 500 ng/mL of Dic) in EP tubes. After the mixture was vortexed for 1 min and then centrifuged for 10 min (13000 rpm, 4°C), transfer 50 μL supernatant to a 96-well plate with 150 μL pure water, shake for 10 min, and finally analyze by LC-MS/MS. For stomach: tissue samples were added with 3-folds (w/v) saline in terms of the weight of samples and then homogenated. 20 μL Std samples in duplicate, QC samples in duplicate, and rat stomach samples were mixed with 60 μL ACN containing IS (200 ng/mL of tolbutamide, 50 ng/mL of propranolol, and 500 ng/mL of Dic) in EP tubes. After the mixture was vortexed for 1 min and then centrifuged for 10 min (13000 rpm, 4°C), transfer 50 μL supernatant to a 96-well plate with 150 μL pure water, shake for 10 min, and finally analyze by LC-MS/MS.

[6] = rats, single oral 4 mg/kg SH-337
[7] = stomach-liver distribution ratio, rats, oral 4 mg/kg

In the case of CNCc1cc(-c2ccc(OCC3CC3)cc2F)n(S(=O)(=O)c2cccnc2)c1.Cl.Cl [SH-337, 1-(5-(4-(cyclopropylmethoxy)-2-fluorophenyl)-1-(pyridin-3-ylsulfonyl)-1H-pyrrol-3-yl)-N-methylmethanamine dihydrochloride], the IC50 (Na+, K+-ATPase) is reported as 31.3 µM, the Fold selectivity (Na+, K+-ATPase; Na+, K+-ATPase over H+, K+-ATPase) is reported as 925.6 fold and the “Relative peak area, RHeps” value [1] is reported as 28.2%. For the same compound, the “In vivo efficacy (% inhibition)” value ([2]; histamine-induced acid secretion in rats, 2 mg/kg, i.g. (Table 2)) was 83%, the “Total acid output, histamine-stimulated model” value ([2]; i.g. 2 mg/kg) was 0.31 ± 0.39^∗∗ 10^−4 mol and the “Inhibition (%), histamine-stimulated model” value ([2]; i.g. 2 mg/kg (Table 6)) was 80%. The “Inhibition (%), histamine-stimulated model” value ([2]; i.g. 4 mg/kg) was 93%, the “Total acid output, histamine-stimulated model” value ([2]; i.g. 4 mg/kg) was 0.14 ± 0.48^∗∗ 10^−4 mol and the “fold reduction of t1/2 vs. vonoprazan” value ([3]; human microsomes) was 4.2 fold. For the same compound, the half-life ([3]; human, human liver microsomes, read-out: Metabolic stability (t1/2) human) was 1.36 h, the IC50 [4] was 0.0338 µM and the “fold greater enzyme inhibitory activity than vonoprazan” value ([4]; H+, K+-ATPase IC50, SH-337 vs. vonoprazan) was 2.0 fold. For the same compound, the “C Stomach/CLiver (stomach-liver distribution ratio)” value ([5]; AUC, rats, i.g. 4 mg/kg SH-337) was 7.1, the concentration at 15 min ([5]; male, SD, rat, liver, rats, single oral 4 mg/kg SH-337, read-out: Concentration, Liver, 15 min) was 5240 ng/mL and the concentration at 1 h ([5]; male, SD, rat, liver, rats, single oral 4 mg/kg SH-337, read-out: Concentration, Liver, 1 h) was 846 ng/mL. It also gave a concentration at 2 h ([5]; male, SD, rat, liver, rats, single oral 4 mg/kg SH-337, read-out: Concentration, Liver, 2 h) of 262 ng/mL, a concentration at 4 h ([5]; male, SD, rat, liver, rats, single oral 4 mg/kg SH-337, read-out: Concentration, Liver, 4 h) of 145 ng/mL and a concentration at 24 h ([5]; male, SD, rat, liver, rats, single oral 4 mg/kg SH-337, read-out: Concentration, Liver, 24 h) of 1.3 ng/mL. The concentration at 1 h ([5]; male, SD, rat, plasma, rats, 1 h after oral administration of 4.0 mg/kg (Table 2), read-out: Drug concentration, Plasma) was 7.1 ng/mL, the concentration at 15 min ([5]; male, SD, rat, plasma, rats, single oral 4 mg/kg SH-337, read-out: Concentration, Plasma, 15 min) was 9.4 ng/mL and the concentration at 1 h ([5]; male, SD, rat, plasma, rats, single oral 4 mg/kg SH-337, read-out: Concentration, Plasma, 1 h) was 15.5 ng/mL. It also gave a concentration at 2 h ([5]; male, SD, rat, plasma, rats, single oral 4 mg/kg SH-337, read-out: Concentration, Plasma, 2 h) of 5.1 ng/mL, a concentration at 4 h ([5]; male, SD, rat, plasma, rats, single oral 4 mg/kg SH-337, read-out: Concentration, Plasma, 4 h) of 6.7 ng/mL and an AUC(0-t) ([5]; male, SD, rat, plasma, rats, single oral 4 mg/kg SH-337, read-out: AUC-last, Plasma) of 32.6 ng·h/mL. For the same compound, the Kp ([5]; male, SD, rat, stomach / plasma, oral, AUC, rats, i.g. 4 mg/kg SH-337, read-out: C Stomach/CPlasma (stomach-plasma distribution ratio)) was 1360, the concentration at 1 h ([5]; male, SD, rat, stomach, rats, 1 h after oral administration of 4.0 mg/kg (Table 2), read-out: Drug concentration, Stomach) was 6690 ng/mL and the concentration at 15 min ([5]; male, SD, rat, stomach, rats, single oral 4 mg/kg SH-337, read-out: Concentration, Stomach, 15 min) was 9820 ng/mL. It also gave a concentration at 1 h ([5]; male, SD, rat, stomach, rats, single oral 4 mg/kg SH-337, read-out: Concentration, Stomach, 1 h) of 3340 ng/mL, a concentration at 2 h ([5]; male, SD, rat, stomach, rats, single oral 4 mg/kg SH-337, read-out: Concentration, Stomach, 2 h) of 3030 ng/mL and a concentration at 4 h ([5]; male, SD, rat, stomach, rats, single oral 4 mg/kg SH-337, read-out: Concentration, Stomach, 4 h) of 2810 ng/mL. For the same compound, the concentration at 24 h ([5]; male, SD, rat, stomach, rats, single oral 4 mg/kg SH-337, read-out: Concentration, Stomach, 24 h) was 136 ng/mL, the Kp at 1 h ([5]; male, SD, rat, ratio of stomach to plasma distribution 1 h after oral administration of 4.0 mg/kg, read-out: C Stomach/CPlasma) was 943 and the “AUC0–24, Liver” value ([5]; rats, i.g. 4 mg/kg SH-337) was 6155.6 ng equiv. h/mL or g. The “AUC0–24, Plasma” value ([5]; rats, i.g. 4 mg/kg SH-337) was 32.6 ng equiv. h/mL or g, the “AUC0–24, Stomach” value ([5]; rats, i.g. 4 mg/kg SH-337) was 44240.4 ng equiv. h/mL or g and the “retention in the stomach” value ([5]; rats, oral 4 mg/kg) was “more than 24 h”. The “AUC-last, Liver” value [5, 6] was 6155.6 ng·h/g, the “AUC-last, Stomach” value [5, 6] was 44240.4 ng·h/g and the “Concentration, Plasma, 24 h” value ([5]; rats, single oral 4 mg/kg SH-337, BLQ: below limit of quantification) was “BLQ”. The “CStomach/CLiver, 15 min” value [5, 7] was 1.9, the “CStomach/CLiver, 1 h” value [5, 7] was 3.95 and the “CStomach/CLiver, 2 h” value [5, 7] was 11.6. The “CStomach/CLiver, 4 h” value [5, 7] was 19.4 and the “CStomach/CLiver, 24 h” value [5, 7] was 104.9.
